# Laboratory results published in paper PMC4468182, “Murine Efficacy and Pharmacokinetic Evaluation of the Flaviviral NS5 Capping Enzyme 2-Thioxothiazolidin-4-One Inhibitor BG-323” (PLoS ONE, 2015).
# “And” between values parts separate entries of the source, which are not always exact repeats. Equal values may be shown once.
# Legend:
# [1] = In vivo half-life (T1/2), serum LC/MS/MS
# [2] = tested on: Powassan virus (LB strain); format: cell-based
# CYP P450 isoform 2C9 = CYP P450 isoform 2C9 (Homo sapiens, UniProt P11712); assay: CYP P450 binding assay, isoform 2C9; conditions: 10 μM, human liver microsomes, diclofenac substrate, vs sulfaphenazole positive control
# Sequence of CYP P450 isoform 2C9 (P11712 whole entry, canonical isoform): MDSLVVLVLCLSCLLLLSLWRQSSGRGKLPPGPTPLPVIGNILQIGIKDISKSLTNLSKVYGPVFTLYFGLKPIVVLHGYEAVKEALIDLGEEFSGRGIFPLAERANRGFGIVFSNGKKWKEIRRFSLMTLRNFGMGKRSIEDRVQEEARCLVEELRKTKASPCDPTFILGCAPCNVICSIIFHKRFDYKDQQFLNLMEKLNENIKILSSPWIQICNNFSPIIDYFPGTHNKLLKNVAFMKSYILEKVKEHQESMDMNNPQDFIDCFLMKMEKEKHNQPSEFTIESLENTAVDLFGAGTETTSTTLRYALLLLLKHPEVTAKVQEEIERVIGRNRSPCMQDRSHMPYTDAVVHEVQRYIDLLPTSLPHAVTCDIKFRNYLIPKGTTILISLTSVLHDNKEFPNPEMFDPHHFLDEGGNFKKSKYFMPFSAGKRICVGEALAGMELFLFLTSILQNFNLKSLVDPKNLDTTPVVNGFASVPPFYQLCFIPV
# Yellow fever viruses = conditions: cited from earlier work
# [3] = Metabolic stability assay in liver microsomes; conditions: 1 μM, human liver microsomes 0.5 mg/mL, NADPH
# WNV NY99 = assay: In vivo antiviral efficacy in WNV NY99-challenged mice; design: species or system ICR mice; key to Clinical score, day 1 post-challenge / Clinical score, day 2 post-challenge / Clinical score, day 3 post-challenge / Clinical score, day 4 post-challenge / Clinical score, day 5 post-challenge / Clinical score, day 6 post-challenge / Clinical score, day 7 post-challenge / Clinical score, day 8 post-challenge / Clinical score, day 9 post-challenge / Clinical score, day 10 post-challenge / Clinical score, day 11 post-challenge / Clinical score, day 12 post-challenge / Clinical score, day 13 post-challenge / Clinical score, day 14 post-challenge: 0 is normal; 1 is questionable illness; 2 is distinct mild illness; 3 is distinct disease; 4 is serious disease/moribund
# [4] = In vivo toxicity assay (mouse weight); design: species or system ICR mice; conditions: 50 mg/kg IP
# Experimental: Two groups of 3 mice each were either injected with 150 μL of 50 mg/kg BG-323 (synthesized by Brian McNaughton’s group at CSU [15]) formulated in 10% DMSO, 15% solutol and 75% saline or DMSO vehicle in the same formulation. Mice were weighed daily for 7 days and percent of maximum weight loss was calculated.
# Caco-2 cells = assay: Caco-2 cell permeability assay; conditions: 5 μM, Caco-2, pH 7.4, 120 min
# [5] = tested on: West Nile virus (subtype Kunjin); design: method as in PMID 22674988; conditions: 75 μM, cell culture, previously tested; cited from earlier work
# [6] = Plasma protein binding assay (Rapid Equilibrium Dialysis); format: in vitro ADME; conditions: human plasma, 5 μM, pH 7.4, 37°C, 4 hr
# [7] = tested on: West Nile virus (NY99 strain); assay: In vitro West Nile virus efficacy assay (plaque assay); format: cell-based
# WNV (Kunjin subtype) = assay: BG-323 resistance study, six rounds of infection; format: cell-based, West Nile virus; conditions: 75 μM BG-323, BHK21 cells, 100 PFU Kunjin per round, six 3-day rounds
# Experimental: On day one, BHK-21 cells (ATCC) were seeded in 12-well plates at 50,000 cells/mL and allowed to attach overnight. The following day, each of 9 wells was infected with 100 PFU WNV (Kunjin subtype) in complete DMEM (cDMEM) and 3 uninfected control wells received cDMEM only. Cells were incubated with media for 2 hr at 37°C to allow cells to become infected. After 2 hr, infected cDMEM was replaced with new media containing DMSO or 75 μM BG-323. Each condition was run in triplicate. Following DMSO or drug administration, cells were incubated at 37°C. On day 3, samples were collected and stored at -80°C. Viral titers were calculated by plaque assay as previously described on one tube of the day 3 samples for each replicate. 100 PFU from an unthawed day 3 sample was used to infect fresh BHK 21 cells to start the next round of infection. The three-day cycle was considered one round of infection and the study continued for 6 rounds. The infectious input of Kunjin virus and the concentrations (75 μM) of BG-323 were held constant throughout the study.
# CYP P450 isoform 3A4 = CYP P450 isoform 3A4 (Homo sapiens, UniProt P08684); assay: CYP P450 binding assay, isoform 3A4; conditions: 10 μM, human liver microsomes, midazolam substrate, vs ketoconazole positive control
# Sequence of CYP P450 isoform 3A4 (P08684 whole entry, canonical isoform): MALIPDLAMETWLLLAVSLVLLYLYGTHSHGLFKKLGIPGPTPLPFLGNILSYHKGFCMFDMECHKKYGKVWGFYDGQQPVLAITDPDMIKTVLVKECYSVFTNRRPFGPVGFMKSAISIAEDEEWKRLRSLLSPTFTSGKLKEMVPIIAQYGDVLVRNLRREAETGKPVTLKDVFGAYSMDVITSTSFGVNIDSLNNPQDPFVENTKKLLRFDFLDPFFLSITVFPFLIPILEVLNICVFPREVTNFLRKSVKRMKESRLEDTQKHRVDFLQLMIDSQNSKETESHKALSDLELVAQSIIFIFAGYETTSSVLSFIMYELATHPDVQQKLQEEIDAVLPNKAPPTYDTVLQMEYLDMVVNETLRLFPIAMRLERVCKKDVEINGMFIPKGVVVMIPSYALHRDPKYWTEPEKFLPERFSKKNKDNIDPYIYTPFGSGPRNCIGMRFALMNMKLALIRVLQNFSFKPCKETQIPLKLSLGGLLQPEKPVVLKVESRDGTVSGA
# [8] = mice, 0.38 mL bolus of 5 mg/mL, serum
structure (smiles),measurement,setting,value
"CC(C)(C)c1ccc(/C=C2/SC(=S)N(CCC(=O)O)C2=O)cc1 [BG-323, (E)-{3-[5-94-tert-butylbenzylidene0-4-oxo-2-thioxo-1,3-thiazolidin-3-yl]propanoic acid}]",T1/2 in mice,"[1]; 0.38 mL bolus of 5 mg/mL, serum",1.75 h
same,Initial concentration (C0),[1]; [8],19275 ng/mL
same,elimination rate constant (Kel),[1]; [8],0.395 h⁻¹
same,average serum concentration five min after administration,"[1]; mice, 0.38 mL of 5 mg/mL, 5 min","~21,000 ng/mL"
same,reduction in viral titers compared to DMSO controls (Powassan),[2],~5 fold
same,reduction of Powassan virus titers,[2],approximately 5 logs
same,percent inhibition of CYP 2C9,CYP P450 isoform 2C9,insignificant compared to positive controls
same,"log reduction of titers, Yellow fever virus",Yellow fever viruses,~1 log
same,T1/2 in human liver microsomes,[3],> 1 h
same,in vitro intrinsic clearance (CLint),[3],< 0.023 mL/min/mg protein
same,percent of initial concentration remaining at 60 minutes,[3]; 60 min,85%
same,average viral titers in sera on day three,"WNV NY99; 500 PFU WNV NY99 footpad, 50 mg/kg IP BID 5 days, day 3 post challenge",1.6x10^5 PFU/mL
same,"Clinical score, day 1 post-challenge","WNV NY99; individual WNV NY99-challenged mice, 50 mg/kg IP BID 5 days, day 1",0
same,"Clinical score, day 2 post-challenge","WNV NY99; individual WNV NY99-challenged mice, 50 mg/kg IP BID 5 days, day 2",0
same,"Clinical score, day 3 post-challenge","WNV NY99; individual WNV NY99-challenged mice, 50 mg/kg IP BID 5 days, day 3",0
same,"Clinical score, day 4 post-challenge","WNV NY99; individual WNV NY99-challenged mice, 50 mg/kg IP BID 5 days, day 4",0
same,"Clinical score, day 5 post-challenge","WNV NY99; individual WNV NY99-challenged mice, 50 mg/kg IP BID 5 days, day 5",0
same,"Clinical score, day 6 post-challenge","WNV NY99; individual WNV NY99-challenged mice, 50 mg/kg IP BID 5 days, day 6",1
same,"Clinical score, day 7 post-challenge","WNV NY99; individual WNV NY99-challenged mice, 50 mg/kg IP BID 5 days, day 7",1 and 4
same,"Clinical score, day 8 post-challenge","WNV NY99; individual WNV NY99-challenged mice, 50 mg/kg IP BID 5 days, day 8",1 and 4
same,"Clinical score, day 9 post-challenge","WNV NY99; individual WNV NY99-challenged mice, 50 mg/kg IP BID 5 days, day 9",4 and 2 and 1
same,"Clinical score, day 10 post-challenge","WNV NY99; individual WNV NY99-challenged mice, 50 mg/kg IP BID 5 days, day 10",4 and 1
same,"Clinical score, day 11 post-challenge","WNV NY99; individual WNV NY99-challenged mice, 50 mg/kg IP BID 5 days, day 11",1
same,"Clinical score, day 12 post-challenge","WNV NY99; individual WNV NY99-challenged mice, 50 mg/kg IP BID 5 days, day 12",0
same,"Clinical score, day 13 post-challenge","WNV NY99; individual WNV NY99-challenged mice, 50 mg/kg IP BID 5 days, day 13",0
same,"Clinical score, day 14 post-challenge","WNV NY99; individual WNV NY99-challenged mice, 50 mg/kg IP BID 5 days, day 14",0
same,survival probability (Kaplan-Meier) versus control,"WNV NY99; mouse, in vivo",approximately the same between the two groups
same,gross toxicity in mice,[4]; 7 days,does not appear to be grossly toxic
same,average weight loss percentage (maximum weight loss),"[4]; mice, weights monitored 7 days",3.5%
same,"Average Papp, A to B",Caco-2 cells; A to B,49.4±1 x 10^−6 cm/s
same,"Percent Recovery, A to B",Caco-2 cells; A to B,43%
same,"Average Papp, B to A",Caco-2 cells; B to A,49.6±9.5 x 10^−6 cm/s
same,"Percent Recovery, B to A",Caco-2 cells; B to A,57%
same,"log reduction of titers, West Nile virus (subtype Kunjin)",[5],approximately 2 log
same,percent bound to plasma proteins,[6],99.9%
same,reduction of West Nile virus titers,[7],approximately 5 logs
same,reduction in viral titers compared to DMSO controls (WNV),"[7]; 75 μM, BHK21 cells, 72 hours, Fig 1 legend",~5 fold
same,emergence of resistance (viral titers over time),WNV (Kunjin subtype),no significant increase in viral titers over time
same,percent inhibition of CYP 3A4,CYP P450 isoform 3A4,insignificant compared to positive controls
